From the CheMixHub viscosity set
± gives the uncertainty stated by the source.

Assay: xn = mol fraction of the nth substance listed
Settings: 101 kPa

CN(C)C=O + CC(C)O
viscosity [mPa·s]
Settings	298.15 K	303.15 K	308.15 K	313.15 K	318.15 K	323.15 K
x1 = 0.0879	1.65 ± 0.04	1.44 ± 0.03	1.3 ± 0.1	1.14 ± 0.03	–	–
x1 = 0.0995	–	1.385 ± 0.011	1.237 ± 0.0097	1.096 ± 0.0087	0.9913 ± 0.008	0.88 ± 0.0072
x1 = 0.1606	1.46 ± 0.03	1.28 ± 0.03	1.16 ± 0.03	1.03 ± 0.02	–	–
x1 = 0.1992	–	1.166 ± 0.0093	1.057 ± 0.0085	0.9438 ± 0.0077	0.8597 ± 0.0071	0.778 ± 0.0065
x1 = 0.2389	1.34 ± 0.03	1.18 ± 0.03	1.08 ± 0.02	0.95 ± 0.02	–	–
x1 = 0.3011	–	1.034 ± 0.0084	0.9443 ± 0.0078	0.8524 ± 0.0071	0.7903 ± 0.0067	0.7214 ± 0.0062
x1 = 0.3433	1.24 ± 0.03	1.1 ± 0.1	1.01 ± 0.02	0.9 ± 0.1	–	–
x1 = 0.4009	–	0.9507 ± 0.0079	0.8752 ± 0.0074	0.8075 ± 0.0069	0.7462 ± 0.0064	0.6851 ± 0.006
x1 = 0.44	1.16 ± 0.03	1.05 ± 0.02	0.96 ± 0.02	0.87 ± 0.02	–	–
x1 = 0.4512	1.297 ± 0.32	–	–	–	–	–
x1 = 0.4737	–	0.9177 ± 0.0078	0.8467 ± 0.0073	0.7863 ± 0.0068	0.7252 ± 0.0064	0.6742 ± 0.006
x1 = 0.5597	1.07 ± 0.02	0.98 ± 0.02	0.9 ± 0.1	0.82 ± 0.02	–	–
x1 = 0.5987	–	0.8585 ± 0.0075	0.7964 ± 0.007	0.7362 ± 0.0066	0.6938 ± 0.0062	0.6453 ± 0.0059
x1 = 0.6504	1.01 ± 0.02	0.94 ± 0.02	0.86 ± 0.02	0.8 ± 0.1	–	–
x1 = 0.7011	–	0.8282 ± 0.0074	0.771 ± 0.007	0.7187 ± 0.0066	0.6776 ± 0.0062	0.6312 ± 0.0059
x1 = 0.735	0.96 ± 0.02	0.89 ± 0.02	0.83 ± 0.02	0.76 ± 0.02	–	–
x1 = 0.7991	–	0.796 ± 0.0073	0.7476 ± 0.0069	0.6985 ± 0.0065	0.6578 ± 0.0062	0.6196 ± 0.0059
x1 = 0.8522	0.89 ± 0.02	0.83 ± 0.02	0.78 ± 0.02	0.72 ± 0.02	–	–
x1 = 0.8995	–	0.7844 ± 0.0074	0.7374 ± 0.007	0.6874 ± 0.0066	0.6507 ± 0.0063	0.614 ± 0.006
x1 = 0.9422	0.84 ± 0.02	0.79 ± 0.02	0.74 ± 0.02	0.69 ± 0.02	–	–
